“Also recorded” adds a separate entry of the source. Read-outs that look alike come from different tables or passages of the source.
Tests used:
MDA1986 cell line = test: Promega CellTiter-Glo (CTG) luminescent assay, MDA1986; type: cell-based; conditions: 72 hr, mean ± standard deviation, read-out: IC50 MDA1986
Experimental: (§1) b) Promega CellTiter-Glo (CTG) Luminescent Assay
(§2) Antiproliferative activities against MDA-MB-468LN, MDA1986 and JMAR cell lines were performed with 384-well white plates with the Promega CellTiter-Glo (CTG) luminescent assay with 72 hr compound treatment. Data analysis was performed using GraphPad Prism. Selected data were further checked with MTS/PMS cell viability assay with 96-well plates, which correlated well with Promega CellTiter-Glo luminescent assay.

LNCaP cells = test: Sulforhodamine B assay, LNCaP; type: cell-based; conditions: Homo sapiens, mean ± standard deviation
Experimental: (§3) c) Sulforhodamine B Assay
(§4) The sulforhodamine B assay is used to measure drug-induced cytotoxicity and cell proliferation for large-scale drug-screening applications. Its principle is based on the ability of the protein dye sulforhodamine B to bind electrostatically on pH dependent protein basic amino acid residues of trichloroacetic acid-fixed cells. The aim is to evaluate samples showing selective growth inhibition or cell killing of particular tumor cell lines.
(§5) The SRB assay is performed by treating cells using a 10 point dose-response curve. The cells are fixed with trichloroacetic acid solution and stained with sulforhodamine B dye. The stained cells are then solubilized with 10 mM Tris buffer and read for absorbance at 565 nm.
(§6) Percentage growth is calculated at each of the drug concentration levels using the absorbance raw data.
(§7) Percentage growth inhibition is calculated as: [(Ti−Tz)/(C−Tz)]×100 for concentrations for which Ti≥Tz. [(Ti−Tz)/(Tz)]×100 for concentrations for which Ti<Tz.
(§8) Ti=Absorbance of wells at a given drug concentration level.
(§9) Tz=Absorbance time zero wells
(§10) C=Absorbance of untreated wells (media and cells only)
(§11) After growth inhibition values have been calculated, the data is plotted on Graphpad Prism software. Data is entered and plotted on a sigmoidal dose-response curve using non-linear regression.

JMAR cell line = test: Promega CellTiter-Glo (CTG) luminescent assay, JMAR; type: cell-based; conditions: 72 hr, mean ± standard deviation
Experimental: as §1, §2

MCF-7 cells = test: MTS/PMS cell viability assay, MCF-7; type: cell-based; conditions: Homo sapiens, MCF7
Experimental: (§12) a) MTS/PMS Cell Viability Assay (SKBr3 and MCF-7 Cells)
(§13) Cells were maintained in a 1:1 mixture of Advanced DMEM/F12 (Gibco) supplemented with non-essential amino acids, L-glutamine (2 mM), streptomycin (500 μg/mL), penicillin (100 units/mL), and 10% FBS. Cells were grown to confluence in a humidified atmosphere (37° C., 5% CO2), seeded (2000/well, 100 μL) in 96-well plates, and allowed to attach overnight. Compound at varying concentrations in DMSO (1% DMSO final concentration) was added, and cells were returned to the incubator for 72 hr. At 72 hr, the number of viable cells was determined using an MTS/PMS cell proliferation kit (Promega) per the manufacturer's instructions. Cells incubated in 1% DMSO were used at 100% proliferation, and values were adjusted accordingly. IC50 values were calculated from separate experiments performed in triplicate using GraphPad Prism.

[1] = test system: SKBr3, MDA-MB-468LN, MCF-7, MDA1986, JMAR, PC3-MM2 and LNCaP cell lines; test: Antiproliferative activity against the panel of cancer cell lines; type: cell-based; conditions: for activity against all cell lines tested: panel of seven cancer cell lines
Experimental: as §12
as §13, with “Prism. […]” for “Prism.”
as §1
as §2, with “assay. […]” for “assay.”
as §3, §4, §5

PC3-MM2 cells = test: Sulforhodamine B assay, PC3-MM2; type: cell-based; conditions: Homo sapiens, PC3MM2, mean ± standard deviation
Experimental: as §3, §4, §5, §6, §7, §8, §9, §10, §11

[2] = test system: Hsp90 client proteins Her2, Akt, Raf-1 and CDK6; test: Western blot analyses of Hsp90 client protein degradation in MCF-7 cell lysates; type: cell-based, human; conditions: 24 h; for Hsp90 client proteins Her2, Akt and Raf-1 (Western blot): MCF-7 lysates, L = 1/2 and H = 5 times the antiproliferative IC50
Experimental: MCF-7 cells were cultured as described above and treated with various concentrations of drug, Geldanamycin (GDA or G) in DMSO (1% DMSO final concentration), or vehicle (DMSO) for 24 hr. Cells were harvested in cold PBS and lysed in RIPA lysis buffer containing 1 mM PMSF, 2 mM sodium orthovanadate, and protease inhibitors on ice for 1 hr. Lysates were clarified at 14000 g for 10 min at 4° C. Protein concentrations were determined using the Pierce BCA protein assay kit per the manufacturer's instructions. Equal amounts of protein (15 μg) were electrophoresed under reducing conditions, transferred to a PVDF membrane, and immunoblotted with the corresponding specific antibodies. Membranes were incubated with an appropriate horseradish peroxidase-labeled secondary antibody, developed with a chemiluminescent substrate, and visualized.

SKBr3 cells = test: MTS/PMS cell viability assay, SKBr3; type: cell-based; conditions: Homo sapiens, SK-BR-3
Experimental: as §12, §13

MDA-MB-468LN cell line = test: Promega CellTiter-Glo (CTG) luminescent assay, MDA-MB-468LN; type: cell-based; conditions: Homo sapiens, 72 hr, mean ± standard deviation
Experimental: as §1, §2

Hsp90 C-terminus = test: Proteolytic fingerprinting assay of Hsp90 from rabbit reticulocyte lysate; type: binding; conditions: 5 mM compound; band not detected for vehicle control
Experimental: e) Proteolytic Fingerprinting Assay
Rabbit reticulocyte (Green Hectares) incubated under conditions of protein synthesis at 30° C. in the presence of compound or vehicle (1% DMSO) for 10 minutes. Each reaction mixture contained 66.6% rabbit reticulocyte and 33.3% ATP regenerating system (10 mM creatine phosphate and 20 μg mL^−1 creatine phosphokinase) and a final concentration of 75 mM KCl. Each reaction mixture contained the indicated amount of compound. After incubating, the samples were immediately placed on ice and the indicated amount of TPCK-treated trypsin (Worthington) was added to each sample. The samples digested on ice for an additional 6 minutes and the reactions were quenched by the addition of Laemmli sample buffer followed by immediate boiling. Equal amounts of each sample were electrophoresed under reducing conditions (12% acrylamide gels), transferred to PVDF, and immunoblotted with an antibody specific to the Hsp90 C-terminus. Membranes were incubated with an appropriate horseradish peroxidase-labeled secondary antibody, developed with a chemiluminescent substrate, and visualized.

[3] = Table 2 biphenyl triazole analogues
[4] = Table 2 biphenyl triazole analogues, 72 hr, mean ± standard deviation, read-out: IC50 MCF-7
[5] = read-out: IC50 against MCF-7 cell line
[6] = Table 2 biphenyl triazole analogues, 72 hr, mean ± standard deviation, read-out: IC50 SKBr3
[7] = Table 1 coumarin-based triazoles
[8] = Table 1 coumarin-based triazoles, 72 hr, mean ± standard deviation, read-out: IC50 MCF-7
[9] = Table 1 coumarin-based triazoles, 72 hr, mean ± standard deviation, at least two experiments in triplicate, read-out: IC50 SKBr3

SMILES | Hsp90 client proteins Her2, Akt and Raf-1 (Western blot) [2] | IC50 (MDA1986 cell line; [7]) [nM] | IC50 (LNCaP cells; [7]) [nM] | IC50 (JMAR cell line; [7]) [nM] | IC50 (MCF-7 cells; [8]) [nM] | IC50 (PC3-MM2 cells; [7]) [nM] | IC50 (SKBr3 cells; [9]) [nM] | IC50 (MDA-MB-468LN cell line; [7]) [nM] | also measured
CN1CCC(Oc2ccc(-c3ccc(NC(=O)c4cn(Cc5ccccc5)nn4)cc3)cc2)CC1 [5b, 1-Benzyl-N-(4′-((1-methylpiperidin-4-yl)oxy)-[1,1′-biphenyl]-4-yl)-1H-1,2,3-triazole-4-carboxamide] | decreased; also recorded: Clear degradation |  |  |  |  |  |  |  | IC50 (MDA1986 cell line; [3]): 280 ± 100 nM; IC50 (LNCaP cells; [3]): 650 ± 540 nM; IC50 (JMAR cell line; [3]): 500 ± 60 nM; IC50 (MCF-7 cells; [4]): 500 ± 20 nM; IC50 (MCF-7 cells; [5]): 500 nM; times more potent than 5a against all the cell lines evaluated ([1]; 5b compared with 5a): 2.5-8 times; IC50 (PC3-MM2 cells; [3]): 550 ± 460 nM; client proteins Her2, Akt, Raf-1 and CDK6 (Western blot, concentration series) ([2]; MCF-7 cells, increasing concentrations): degraded in a concentration-dependent manner; IC50 (SKBr3 cells; [6]): 170 ± 20 nM; IC50 (SKBr3 cells; read-out: IC50 against SKBr3 cell line): 170 nM; IC50 (MDA-MB-468LN cell line; [3]): 340 ± 70 nM
Cc1c(OC2CCN(C)CC2)ccc2cc(NC(=O)c3cn(Cc4ccccc4)nn3)c(=O)oc12 [4b, 1-Benzyl-N-(8-methyl-7-((1-methylpiperidin-4-yl)oxy)-2-oxo-2H-chromen-3-yl)-1H-1,2,3-triazole-4-carboxamide] |  | 1600 ± 210 | 15500 ± 8750 | 2100 ± 230 | 1080 | 9800 ± 13500 | 990 ± 80 | 2400 | activity against all cell lines tested [1]: low micromolar
COc1cccc(Cn2cc(C(=O)Nc3cc4ccc(OC5CCN(C)CC5)c(C)c4oc3=O)nn2)c1 [4o, 1-(3-Methoxybenzyl)-N-(8-methyl-7-((1-methylpiperidin-4-yl)oxy)-2-oxo-2H-chromen-3-yl)-1H-1,2,3-triazole-4-carboxamide] | degraded | 1340 ± 310 | 3490 ± 300 | 1490 ± 310 | 1610 ± 60 | 7200 ± 150 | 1150 ± 190 | 2690 ± 1330 | 
COc1ccc(Cn2cc(C(=O)Nc3ccc(-c4ccc(OC5CCN(C)CC5)cc4)cc3)nn2)cc1 [5g, 1-(4-Methoxybenzyl)-N-(4′-((1-methylpiperidin-4-yl)oxy)-[1,1′-biphenyl]-4-yl)-1H-1,2,3-triazole-4-carboxamide] | decreased; also recorded: Clear degradation |  |  |  |  |  |  |  | IC50 (MDA1986 cell line; [3]): 480 ± 90 nM; IC50 (LNCaP cells; [3]): 240 ± 70 nM; IC50 (JMAR cell line; [3]): 610 ± 90 nM; IC50 (MCF-7 cells; [4]): 270 ± 60 nM; IC50 (MCF-7 cells; [5]): 270 nM; IC50 (PC3-MM2 cells; [3]): 440 ± 190 nM; IC50 (SKBr3 cells; [6]): 160 ± 20 nM; IC50 (MDA-MB-468LN cell line; [3]): 170 nM
CO[C@@H]1[C@@H](OC(N)=O)[C@@H](O)[C@H](Oc2ccc3c(O)c(NC(=O)c4ccc(O)c(CC=C(C)C)c4)c(=O)oc3c2C)OC1(C)C [novobiocin, reference compound] |  |  |  |  |  |  |  |  | 50 kDa Hsp90 fragment on trypsin proteolysis (C-terminal Hsp90 antibody) (Hsp90 C-terminus): 50 kDa band was detected
Cc1c(OC2CCN(C)CC2)ccc2cc(NC(=O)c3cn(-c4cccc(Cl)c4)nn3)c(=O)oc12 [4f, 1-(3-Chlorophenyl)-N-(8-methyl-7-((1-methylpiperidin-4-yl)oxy)-2-oxo-2H-chromen-3-yl)-1H-1,2,3-triazole-4-carboxamide] | degraded | 6400 | 13300 ± 11900 | 6400 | 1140 ± 180 | 3900 ± 5110 | 710 ± 140 | 4600 | 
Cc1c(OC2CCN(C)CC2)ccc2cc(NC(=O)c3cn(CC4CCCCC4)nn3)c(=O)oc12 [4q, 1-(Cyclohexylmethyl)-N-(8-methyl-7-((1-methylpiperidin-4-yl)oxy)-2-oxo-2H-chromen-3-yl)-1H-1,2,3-triazole-4-carboxamide] | degraded | 240 ± 320 | 1200 ± 60 | 300 ± 260 | 1290 ± 160 | 3130 ± 140 | 610 | 990 ± 240 | 
Cc1c(OC2CCN(C)CC2)ccc2cc(NC(=O)c3cn(-c4ccccc4)nn3)c(=O)oc12 [4a, N-(8-methyl-7-((1-methylpiperidin-4-yl)oxy)-2-oxo-2H-chromen-3-yl)-1-phenyl-1H-1,2,3-triazole-4-carboxamide] |  | 1500 ± 3400 | 4720 ± 710 | 2300 ± 400 | 1330 ± 130 | 2690 | 940 ± 20 | 1100 ± 210 | activity against all cell lines tested [1]: low micromolar
Cc1ccc(Cn2cc(C(=O)Nc3cc4ccc(OC5CCN(C)CC5)c(C)c4oc3=O)nn2)cc1 [4i, 1-(4-Methylbenzyl)-N-(8-methyl-7-((1-methylpiperidin-4-yl)oxy)-2-oxo-2H-chromen-3-yl)-1H-1,2,3-triazole-4-carboxamide] |  | 1500 ± 200 | 7240 ± 1020 | 1800 ± 950 | 1500 ± 190 | 7320 ± 5440 | 1210 ± 70 | 2400 ± 250 | 
